The source made the active and inactive calls.
Columns and labels:
[1] = molecular target: Heat shock protein HSP 90-alpha (Homo sapiens, UniProt P07900); format: functional, organism-based
[2] = Luminescence Cell-Based Dose Retest to Confirm Inhibitors of Cancer Stem Cells. [Related pubchem assays (depositor defined):AID2717, AID2721]; format: functional; conditions: Homo sapiens
[3] = HepG2 cell cytotoxicity, dose response, cytotoxicity control for non-replicating M. tuberculosis project (AID 489018); format: functional; conditions: Mycobacterium tuberculosis
[4] = Counterscreen for AddAB inhibitors: absorbance-based bacterial cell-based high throughput dose response assay for inhibitors of bacterial viability. [Related pubchem assays (depositor defined):AID435030, AID449728, AID449731, AID488942, AID488955, AID488956]; format: functional
Exodeoxyribonuclease V = Exodeoxyribonuclease V (Escherichia coli (strain K12), UniProt P04993+P07648+P08394); experiment: RecBCD inhibition via phage-restricted bacterial growth – absorbance, V66 E. coli, mutant T4 phage, counter-screen for AddAB inhibitor project, dose response (AID 492957); format: functional, cell-based, Escherichia coli str. K-12 substr. MG1655
[5] = Vero E6 cell cytotoxicity, dose response, cytotoxicity control for non-replicating M. tuberculosis project, secondary assay (AID 492998); format: functional, VeroE6; conditions: Vero C1008
[6] = THP-1 cell cytotoxicity, dose response, cytotoxicity control for non-replicating M. tuberculosis project (AID 489025); format: functional
cells = format: functional
[7] = molecular target: T1, Tyrosine-protein phosphatase non-receptor type 7 (Homo sapiens, UniProt P35236); experiment: inhibition of hematopoietic tyrosine phosphatase HePTP – biochemical, set 2, SAR follow-up (AID 449736); format: functional
T1 sequence (P35236 whole entry): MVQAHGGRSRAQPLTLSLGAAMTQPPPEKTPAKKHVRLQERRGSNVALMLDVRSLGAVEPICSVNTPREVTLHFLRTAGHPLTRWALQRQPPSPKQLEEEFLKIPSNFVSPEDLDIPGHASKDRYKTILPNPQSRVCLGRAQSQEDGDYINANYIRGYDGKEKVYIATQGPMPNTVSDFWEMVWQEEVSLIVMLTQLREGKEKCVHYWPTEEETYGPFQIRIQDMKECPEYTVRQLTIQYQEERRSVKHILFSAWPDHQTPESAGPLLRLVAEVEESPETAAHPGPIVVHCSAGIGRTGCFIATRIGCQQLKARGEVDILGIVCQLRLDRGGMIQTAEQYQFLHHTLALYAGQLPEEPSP

[8] = rescue of ΔF508 CFTR function, airway epithelium – human bronchial epithelial cells, plate reader, cherry-pick, two tests, dose response (AID 743267); format: functional, cell-based
Hexokinase HKDC1 = molecular target: T2, Hexokinase HKDC1 (Homo sapiens, UniProt Q2TB90); experiment: activation of HKDC1 glucose phosphorylation – biochemical, W721R variant, dose response (AID 504730); format: functional
T2 sequence (Q2TB90 whole entry): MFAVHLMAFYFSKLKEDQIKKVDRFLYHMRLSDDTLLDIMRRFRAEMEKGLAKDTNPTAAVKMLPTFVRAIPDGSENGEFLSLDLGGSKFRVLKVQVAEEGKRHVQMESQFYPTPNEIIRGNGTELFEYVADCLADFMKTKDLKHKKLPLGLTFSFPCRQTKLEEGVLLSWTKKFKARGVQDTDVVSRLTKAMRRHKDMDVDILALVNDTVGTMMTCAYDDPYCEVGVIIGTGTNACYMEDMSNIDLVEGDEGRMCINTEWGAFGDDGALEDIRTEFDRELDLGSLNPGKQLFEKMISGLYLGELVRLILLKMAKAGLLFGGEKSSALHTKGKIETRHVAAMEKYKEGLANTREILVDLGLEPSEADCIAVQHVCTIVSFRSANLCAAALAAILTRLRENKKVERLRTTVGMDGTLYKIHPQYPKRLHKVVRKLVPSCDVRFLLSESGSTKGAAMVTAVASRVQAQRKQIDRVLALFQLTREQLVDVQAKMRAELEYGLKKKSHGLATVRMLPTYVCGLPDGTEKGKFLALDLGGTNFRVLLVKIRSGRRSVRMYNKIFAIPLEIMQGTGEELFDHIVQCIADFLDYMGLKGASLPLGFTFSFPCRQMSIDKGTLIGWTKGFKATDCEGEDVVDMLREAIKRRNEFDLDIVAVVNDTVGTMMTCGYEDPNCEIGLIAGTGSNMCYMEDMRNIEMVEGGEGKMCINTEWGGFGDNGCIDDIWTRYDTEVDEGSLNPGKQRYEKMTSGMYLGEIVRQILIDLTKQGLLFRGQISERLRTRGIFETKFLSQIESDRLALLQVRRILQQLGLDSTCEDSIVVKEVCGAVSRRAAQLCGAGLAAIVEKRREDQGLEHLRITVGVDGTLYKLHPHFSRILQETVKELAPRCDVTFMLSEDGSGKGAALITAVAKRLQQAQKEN

[9] = molecular target: T3, DNA repair protein RAD52 homolog (Homo sapiens, UniProt P43351); format: functional, biochemical
T3 sequence (P43351 whole entry): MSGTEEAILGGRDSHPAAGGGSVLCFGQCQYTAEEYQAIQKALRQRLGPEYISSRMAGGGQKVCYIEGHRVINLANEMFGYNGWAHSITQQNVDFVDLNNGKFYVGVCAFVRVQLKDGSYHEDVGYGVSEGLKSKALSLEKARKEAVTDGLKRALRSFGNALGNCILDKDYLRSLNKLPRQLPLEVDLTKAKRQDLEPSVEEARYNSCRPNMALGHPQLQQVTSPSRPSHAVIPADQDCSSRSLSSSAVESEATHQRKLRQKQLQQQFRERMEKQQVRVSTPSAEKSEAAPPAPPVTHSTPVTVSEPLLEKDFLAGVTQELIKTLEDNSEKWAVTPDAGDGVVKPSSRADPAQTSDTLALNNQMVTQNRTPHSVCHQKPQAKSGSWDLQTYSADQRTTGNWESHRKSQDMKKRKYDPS

[10] = viability loss in HeLa cells – cytotoxicity control for MgcRacGAP inhibitor project, dose response (AID 624300); format: functional
[11] = molecular target: T4, Rac GTPase-activating protein 1 (Homo sapiens, UniProt Q9H0H5); experiment: blockers of MgcRacGAP-driven Rac1 GTP hydrolysis – biochemical, ADP Hunter fluorescence, primary and confirmatory, confirmation (AID 624330); format: functional
T4 sequence (Q9H0H5 whole entry): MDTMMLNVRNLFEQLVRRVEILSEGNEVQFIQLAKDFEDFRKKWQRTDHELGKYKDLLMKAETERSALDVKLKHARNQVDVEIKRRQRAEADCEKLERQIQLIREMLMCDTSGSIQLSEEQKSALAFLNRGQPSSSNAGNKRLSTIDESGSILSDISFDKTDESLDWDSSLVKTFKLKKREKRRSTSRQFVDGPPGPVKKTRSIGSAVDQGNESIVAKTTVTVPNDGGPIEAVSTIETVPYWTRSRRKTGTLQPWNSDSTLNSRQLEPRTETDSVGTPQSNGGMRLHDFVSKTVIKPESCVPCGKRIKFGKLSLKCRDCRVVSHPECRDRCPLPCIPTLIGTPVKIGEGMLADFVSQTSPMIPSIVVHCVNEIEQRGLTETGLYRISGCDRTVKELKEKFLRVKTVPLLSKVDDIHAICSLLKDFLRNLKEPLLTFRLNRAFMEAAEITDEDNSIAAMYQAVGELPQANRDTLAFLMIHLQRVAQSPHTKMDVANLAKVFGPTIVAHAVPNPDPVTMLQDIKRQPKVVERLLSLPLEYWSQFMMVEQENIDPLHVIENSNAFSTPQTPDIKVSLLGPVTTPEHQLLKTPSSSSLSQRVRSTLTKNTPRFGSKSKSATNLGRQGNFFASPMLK

Chain of Exodeoxyribonuclease V (P04993 whole entry): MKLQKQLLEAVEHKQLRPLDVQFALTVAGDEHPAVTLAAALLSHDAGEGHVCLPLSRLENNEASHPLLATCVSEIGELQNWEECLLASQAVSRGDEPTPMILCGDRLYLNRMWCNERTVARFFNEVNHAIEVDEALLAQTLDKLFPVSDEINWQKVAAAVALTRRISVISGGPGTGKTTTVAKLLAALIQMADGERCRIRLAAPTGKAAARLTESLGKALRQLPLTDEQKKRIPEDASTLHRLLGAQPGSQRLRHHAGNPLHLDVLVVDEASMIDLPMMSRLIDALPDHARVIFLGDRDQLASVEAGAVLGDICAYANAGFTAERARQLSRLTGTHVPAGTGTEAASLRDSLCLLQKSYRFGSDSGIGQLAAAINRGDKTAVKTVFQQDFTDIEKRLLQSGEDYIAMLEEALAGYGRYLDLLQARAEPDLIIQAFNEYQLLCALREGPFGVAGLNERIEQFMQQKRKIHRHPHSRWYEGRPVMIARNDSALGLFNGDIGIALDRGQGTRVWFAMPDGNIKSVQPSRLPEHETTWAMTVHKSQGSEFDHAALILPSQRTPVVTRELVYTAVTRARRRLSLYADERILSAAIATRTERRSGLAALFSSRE
Chain of Exodeoxyribonuclease V (P07648 whole entry): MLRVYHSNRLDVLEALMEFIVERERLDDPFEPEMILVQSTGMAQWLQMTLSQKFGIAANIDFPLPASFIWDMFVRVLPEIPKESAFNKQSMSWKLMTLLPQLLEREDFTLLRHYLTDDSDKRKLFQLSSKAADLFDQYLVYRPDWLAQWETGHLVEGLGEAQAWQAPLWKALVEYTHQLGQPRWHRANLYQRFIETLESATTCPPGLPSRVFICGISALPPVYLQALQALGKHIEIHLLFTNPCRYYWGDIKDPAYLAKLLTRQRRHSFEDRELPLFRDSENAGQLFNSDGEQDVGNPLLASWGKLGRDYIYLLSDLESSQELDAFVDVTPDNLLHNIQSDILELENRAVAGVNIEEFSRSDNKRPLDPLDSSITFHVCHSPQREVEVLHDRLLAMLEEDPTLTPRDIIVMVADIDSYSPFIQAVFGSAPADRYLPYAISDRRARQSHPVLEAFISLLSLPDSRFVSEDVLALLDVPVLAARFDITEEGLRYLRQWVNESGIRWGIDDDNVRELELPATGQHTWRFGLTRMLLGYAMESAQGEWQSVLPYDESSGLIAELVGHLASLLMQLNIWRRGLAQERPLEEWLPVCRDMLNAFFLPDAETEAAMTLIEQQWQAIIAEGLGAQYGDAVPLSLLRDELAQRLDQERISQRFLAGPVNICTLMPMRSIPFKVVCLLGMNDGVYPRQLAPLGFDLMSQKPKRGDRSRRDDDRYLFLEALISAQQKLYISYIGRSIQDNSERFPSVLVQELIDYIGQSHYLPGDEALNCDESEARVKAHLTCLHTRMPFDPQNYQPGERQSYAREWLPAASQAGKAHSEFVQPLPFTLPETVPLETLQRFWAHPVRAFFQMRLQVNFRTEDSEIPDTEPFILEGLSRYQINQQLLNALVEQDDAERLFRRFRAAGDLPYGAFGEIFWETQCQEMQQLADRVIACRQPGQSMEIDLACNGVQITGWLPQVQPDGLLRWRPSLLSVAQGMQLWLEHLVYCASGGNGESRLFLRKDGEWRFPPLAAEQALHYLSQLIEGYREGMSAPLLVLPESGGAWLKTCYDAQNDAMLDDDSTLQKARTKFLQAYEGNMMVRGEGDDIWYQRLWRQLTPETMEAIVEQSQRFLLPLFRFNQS
Chain of Exodeoxyribonuclease V (P08394 whole entry): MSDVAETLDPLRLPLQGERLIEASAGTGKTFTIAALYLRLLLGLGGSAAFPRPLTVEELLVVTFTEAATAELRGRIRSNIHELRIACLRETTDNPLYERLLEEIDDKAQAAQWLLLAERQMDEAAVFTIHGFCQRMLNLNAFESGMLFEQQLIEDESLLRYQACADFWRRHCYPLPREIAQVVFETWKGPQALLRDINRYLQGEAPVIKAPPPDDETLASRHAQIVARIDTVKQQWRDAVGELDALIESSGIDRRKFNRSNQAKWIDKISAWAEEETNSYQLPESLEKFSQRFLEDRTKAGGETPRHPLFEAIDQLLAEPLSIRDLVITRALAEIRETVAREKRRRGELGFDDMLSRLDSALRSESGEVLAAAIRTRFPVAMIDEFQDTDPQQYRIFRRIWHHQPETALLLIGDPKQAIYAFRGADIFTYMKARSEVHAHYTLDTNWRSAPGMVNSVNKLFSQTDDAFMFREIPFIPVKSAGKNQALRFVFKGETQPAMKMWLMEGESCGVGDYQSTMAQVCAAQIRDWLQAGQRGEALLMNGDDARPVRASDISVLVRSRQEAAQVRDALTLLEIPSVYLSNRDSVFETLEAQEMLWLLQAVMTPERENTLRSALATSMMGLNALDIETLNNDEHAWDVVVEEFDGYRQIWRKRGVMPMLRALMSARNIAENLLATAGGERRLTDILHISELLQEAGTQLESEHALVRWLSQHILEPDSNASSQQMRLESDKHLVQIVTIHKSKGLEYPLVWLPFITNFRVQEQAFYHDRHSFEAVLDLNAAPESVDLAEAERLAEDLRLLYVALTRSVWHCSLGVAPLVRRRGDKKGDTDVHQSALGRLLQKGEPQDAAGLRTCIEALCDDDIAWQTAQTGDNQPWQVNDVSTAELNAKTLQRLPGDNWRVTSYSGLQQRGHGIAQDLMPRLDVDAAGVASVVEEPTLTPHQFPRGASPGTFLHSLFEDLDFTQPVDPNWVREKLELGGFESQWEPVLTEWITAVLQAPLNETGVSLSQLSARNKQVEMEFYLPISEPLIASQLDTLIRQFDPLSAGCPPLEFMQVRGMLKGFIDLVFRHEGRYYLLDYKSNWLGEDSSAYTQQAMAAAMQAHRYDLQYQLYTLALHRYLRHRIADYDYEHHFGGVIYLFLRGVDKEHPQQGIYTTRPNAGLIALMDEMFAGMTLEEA

For `O=C(Nc1nc(-c2cccs2)cs1)c1ccc([N+](=O)[O-])o1`, which AC50 [1] is on record?
Its AC50 is 2.32 µM (active).

What about the AC50 [2] of the same molecule?
The AC50 was 1.52 µM (active).

And the CC50 [3]?
The CC50 was 9.45 µM (active).

And the IC50 [4]?
The IC50 was > 118 µM (inactive).

What about the IC50 (Exodeoxyribonuclease V) of the same molecule?
Its IC50 is > 118 µM (inactive).

What about the CC50 [5] of the same molecule?
Its CC50 is > 20 µM (active).

And the CC50 [6]?
Its CC50 is 9.67 µM (active).

What about the IC50 (cells) of the same molecule?
Its IC50 is 0.61 µM (active).

For `COc1ccc(Cl)cc1-n1c(N)c(C(=O)N2CCOCC2)sc1=S`, which IC50 [7] is on record?
The IC50 was > 100 µM (inactive).

Which AC50 [8] does the source give for `Cc1ccc2c(C)c3ccc4ccccc4c3c[n+]2c1.[O-][Cl+3]([O-])([O-])[O-]` here?
The AC50 was 1.06 µM (active).

What about the EC50 (Hexokinase HKDC1) of the same molecule?
The EC50 was 14.2 µM (active).

And the AC50 [9]?
The AC50 was 1.34 µM (active).

What about the CC50 [10] of the same molecule?
Its CC50 is 78.8 µM (active).

And the IC50 [11]?
Its IC50 is 48 µM (active).

— ChEMBL document CHEMBL1201862, “PubChem BioAssay data set” (2004)
